The values below come from patent US10925876B2, “Methods for using triazolo-pyrazinyl soluble guanylate cyclase activators in fibrotic disorders” (Merck Sharp & Dohme Corp., priority 2016, dated 2021).

The target of one assay is T1, sGC α1/β1 heterodimer (Homo sapiens, UniProt Q02108+Q02153).
T1 construct: expressed in transfected cells
T1 sequence (Q02108 1-690): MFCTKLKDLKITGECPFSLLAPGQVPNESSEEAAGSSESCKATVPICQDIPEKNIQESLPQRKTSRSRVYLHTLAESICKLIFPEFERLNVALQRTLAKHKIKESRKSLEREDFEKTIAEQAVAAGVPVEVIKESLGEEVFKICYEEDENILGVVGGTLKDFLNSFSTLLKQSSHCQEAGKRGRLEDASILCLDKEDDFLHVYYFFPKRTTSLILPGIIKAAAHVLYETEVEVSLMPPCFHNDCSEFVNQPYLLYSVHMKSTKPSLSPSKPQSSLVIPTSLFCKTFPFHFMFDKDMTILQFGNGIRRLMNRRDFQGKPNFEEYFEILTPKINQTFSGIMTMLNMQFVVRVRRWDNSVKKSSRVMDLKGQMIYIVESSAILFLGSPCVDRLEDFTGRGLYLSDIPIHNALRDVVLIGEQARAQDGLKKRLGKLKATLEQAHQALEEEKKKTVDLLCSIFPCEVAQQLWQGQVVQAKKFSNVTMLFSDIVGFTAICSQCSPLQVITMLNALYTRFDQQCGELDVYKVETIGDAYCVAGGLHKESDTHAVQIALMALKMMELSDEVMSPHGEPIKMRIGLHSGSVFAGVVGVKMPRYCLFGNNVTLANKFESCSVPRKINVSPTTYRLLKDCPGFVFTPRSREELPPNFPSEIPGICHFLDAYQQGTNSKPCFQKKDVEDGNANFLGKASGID
T1 sequence (Q02153 1-619): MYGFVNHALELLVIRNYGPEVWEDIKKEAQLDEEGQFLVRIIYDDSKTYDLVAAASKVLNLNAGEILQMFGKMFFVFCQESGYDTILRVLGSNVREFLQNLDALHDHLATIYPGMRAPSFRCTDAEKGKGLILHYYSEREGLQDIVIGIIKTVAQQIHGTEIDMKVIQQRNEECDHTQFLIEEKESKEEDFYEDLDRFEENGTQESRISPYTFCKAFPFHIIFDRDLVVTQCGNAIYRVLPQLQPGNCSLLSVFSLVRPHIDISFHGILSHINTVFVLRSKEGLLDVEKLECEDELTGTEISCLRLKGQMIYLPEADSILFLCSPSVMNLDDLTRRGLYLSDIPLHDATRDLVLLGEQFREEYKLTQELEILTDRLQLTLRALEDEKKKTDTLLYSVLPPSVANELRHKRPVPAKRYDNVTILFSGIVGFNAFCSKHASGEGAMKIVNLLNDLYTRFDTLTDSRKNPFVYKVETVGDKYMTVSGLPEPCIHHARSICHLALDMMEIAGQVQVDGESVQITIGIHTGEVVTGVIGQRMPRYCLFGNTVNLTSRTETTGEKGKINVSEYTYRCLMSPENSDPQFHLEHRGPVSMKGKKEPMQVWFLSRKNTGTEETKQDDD
The assay can be described thus: Cell-Based sGC Functional Assay (CASA Assay), cGMP generation in CHO-K1/sGC cells.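 Further: reference Compound A is a published heme-dependent sGC activator.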 Conditions: maximum cGMP production of Compound A set to 100% activation, read-out: % Act. (percent activation relative to Compound A). An outline of the steps: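 Intracellular cGMP quantified by HTRF competition after 1 h, 37 °C compound exposure, with or without 1 μM DETA-NO, in stable CHO-K1/sGC α1/β1 cells (4×10^5/mL; buffer with 0.5 mM IBMX, 5 mM MgCl2, 10 mM HEPES, 0.05% BSA; 2.5% DMSO). Activation normalized to reference Compound A maximum; 4P fit.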

In assay [1] the test system is Spontaneously hypertensive rats (SHR). The assay can be described thus: Acute Efficacy in Spontaneously Hypertensive Rats (SHR), telemetry blood pressure. It is filed as in vivo, rat. The settings on record: single oral gavage. The source says: Spontaneously hypertensive rats (SHR, male, Charles River) were implanted with DSI TA11PA-C40 telemetry device (Data Sciences, Inc., St. Paul, Minn.) under isoflurane or ketamine/metomidine anesthesia. The telemetry unit catheter was inserted into the descending aorta via the femoral artery and the telemetry device was implanted subcutaneously in the left flank area. Animals were allowed to recover from surgery for 14 days before the start of any studies. Blood pressure, heart rate, and activity signals from conscious, freely moving rats were recorded continuously for 30 seconds every 10 minutes. On the day prior to administration of compound, a single oral dose of vehicle (10% transcutol/20% Cremophor/70% water) was administered to all animals to establish baseline control data. The blood pressure lowering efficacy of compound (PO) or vehicle was evaluated following a single oral gavage. Data were collected as hourly averages, and changes in blood pressure were calculated by subtracting control baseline data on an hourly basis. Animals were maintained on normal diet with a 12 hour light-dark cycle.
Maximum peak decreases of systolic blood pressure (SBP) in SHR at a particular P.O. dose (mpk milligrams per kilogram) for the following representative compounds are provided. Category A=SBP in SHRs <20 mmHg; Category B=SBP in SHRs 20-40 mmHg; Category C=SBP in SHRs >40 mmHg.

As to `CCCCc1nc(-c2nc(N)c3c(n2)NC(=O)C3(C)c2ccc(C(F)(F)F)cn2)cn2ncnc12` (stereo not shown) [Example 67B, 4-amino-2-(8-butyl-[1,2,4]triazolo[1,5-a]pyrazin-6-yl)-5-methyl-5-(5-(trifluoromethyl)pyridin-2-yl)-5H-pyrrolo[2,3-d]pyrimidin-6(7H)-one], at sGC α1/β1 heterodimer, the Emax worked out at 119%. Besides, in assay [1] (P.O. 0.3 mpk), the “Maximum peak decrease of systolic blood pressure (SBP) in SHR, Cat.” value (“Maximum peak decrease” for short) was “B (Category B=SBP in SHRs 20-40 mmHg)”.

For `CC(C)Cc1nc(-c2nc(N)c3c(n2)NC(=O)[C@@]3(C)c2ccc(F)cc2)cn2ncnc12` [Example 73A, (S)-4-amino-5-(4-fluorophenyl)-2-(8-isobutyl-[1,2,4]triazolo[1,5-a]pyrazin-6-yl)-5-methyl-5,7-dihydro-6H-pyrrolo[2,3-d]pyrimidin-6-one], at sGC α1/β1 heterodimer, the Emax came to 101%. Besides, the “Maximum peak decrease” value in assay [1] (P.O. 1 mpk) was “B (Category B=SBP in SHRs 20-40 mmHg)”.

As for `C[C@@]1(c2ccc(F)cc2)C(=O)Nc2nc(-c3cn4ncnc4c(CCC(F)(F)F)n3)nc(N)c21` [Example 74A, (S)-4-amino-5-(4-fluorophenyl)-5-methyl-2-(8-(3,3,3-trifluoropropyl)-[1,2,4]triazolo[1,5-a]pyrazin-6-yl)-5,7-dihydro-6H-pyrrolo[2,3-d]pyrimidin-6-one], the Emax on sGC α1/β1 heterodimer was determined as 110%. The “Maximum peak decrease” value in assay [1] (P.O. 1 mpk) is reported as “B (Category B=SBP in SHRs 20-40 mmHg)”.

In the case of `CC1(c2ccc(Cl)cc2)C(=O)Nc2nc(-c3cn4ncnc4c(CCC(F)(F)F)n3)nc(N)c21` (stereo not shown) [Example 76A, 4-amino-5-(4-chlorophenyl)-5-methyl-2-(8-(3,3,3-trifluoropropyl)-[1,2,4]triazolo[1,5-a]pyrazin-6-yl)-5H-pyrrolo[2,3-d]pyrimidin-6(7H)-one], the Emax at sGC α1/β1 heterodimer is 120%. In assay [1] (P.O. 0.3 mpk), the “Maximum peak decrease” value is on record as “A (Category A=SBP in SHRs <20 mmHg)”.

Take `CC1(c2ccc(C(F)(F)F)cc2)C(=O)Nc2nc(-c3cn4ncnc4c(CCC(F)(F)F)n3)nc(N)c21` (stereo not shown) [Example 77B, 4-amino-5-methyl-5-(4-(trifluoromethyl)phenyl)-2-(8-(3,3,3-trifluoropropyl)-[1,2,4]triazolo[1,5-a]pyrazin-6-yl)-5H-pyrrolo[2,3-d]pyrimidin-6(7H)-one]: on sGC α1/β1 heterodimer, the Emax came to 112%. In addition, the “Maximum peak decrease” value in assay [1] (P.O. 1 mpk) is “A (Category A=SBP in SHRs <20 mmHg)”.

Regarding `CC1(c2ccc(C(F)(F)F)cn2)C(=O)Nc2nc(-c3cn4ncnc4c(CCC(F)(F)F)n3)nc(N)c21` (stereo not shown) [Example 78B, 4-amino-5-methyl-5-(5-(trifluoromethyl)pyridin-2-yl)-2-(8-(3,3,3-trifluoropropyl)-[1,2,4]triazolo[1,5-a]pyrazin-6-yl)-5H-pyrrolo[2,3-d]pyrimidin-6(7H)-one], the Emax on sGC α1/β1 heterodimer turned out to be 83%. In addition, the “Maximum peak decrease” value in assay [1] (P.O. 3 mpk) is on record as “B (Category B=SBP in SHRs 20-40 mmHg)”.

Consider `CC1(c2ccc(Cl)cn2)C(=O)Nc2nc(-c3cn4ncnc4c(CCC(F)(F)F)n3)nc(N)c21` (stereo not shown) [Example 79A, 4-amino-5-(5-chloropyridin-2-yl)-5-methyl-2-(8-(3,3,3-trifluoropropyl)-[1,2,4]triazolo[1,5-a]pyrazin-6-yl)-5H-pyrrolo[2,3-d]pyrimidin-6(7H)-one], for which the Emax on sGC α1/β1 heterodimer stood at 152%. The “Maximum peak decrease” value in assay [1] (P.O. 1 mpk) is “B (Category B=SBP in SHRs 20-40 mmHg)”.

As to `C[C@@]1(c2ccc(F)cc2)C(=O)Nc2nc(-c3cn4ncnc4c(Cc4ccc(F)cc4)n3)nc(N)c21` [Example 85B, (S)-4-amino-2-(8-(4-fluorobenzyl)-[1,2,4]triazolo[1,5-a]pyrazin-6-yl)-5-(4-fluorophenyl)-5-methyl-5H-pyrrolo[2,3-d]pyrimidin-6(7H)-one], the Emax on sGC α1/β1 heterodimer was found to be 106%. For the same compound, the “Maximum peak decrease” value in assay [1] (P.O. 0.3 mpk) is “C (Category C=SBP in SHRs >40 mmHg)”.

As to `Cc1nc2c(CCC(F)(F)C(F)(F)F)nc(-c3nc(N)c4c(n3)NC(=O)[C@@]4(C)c3ccc(F)cc3)cn2n1` [Example 88B, (S)-4-amino-5-(4-fluorophenyl)-5-methyl-2-(2-methyl-8-(3,3,4,4,4-pentafluorobutyl)-[1,2,4]triazolo[1,5-a]pyrazin-6-yl)-5H-pyrrolo[2,3-d)pyrimidin-6(7H)-one], the Emax at sGC α1/β1 heterodimer amounted to 137%. The “Maximum peak decrease” value in assay [1] (P.O. 1 mpk) is on record as “C (Category C=SBP in SHRs >40 mmHg)”.

On to `CC1(c2ccc(Cl)cc2)C(=O)Nc2nc(-c3cn4ncnc4cn3)nc(N)c21` (stereo not shown) [Example 94A, 2-([1,2,4]triazolo[1,5-a]pyrazin-6-yl)-4-amino-5-(4-chlorophenyl)-5-methyl-5H-pyrrolo[2,3-d]pyrimidin-6(7H)-one], for which, at sGC α1/β1 heterodimer, the Emax amounted to 138%. The “Maximum peak decrease” value in assay [1] (P.O. 1 mpk) is on record as “C (Category C=SBP in SHRs >40 mmHg)”.

On to `CC1(c2cn(C3CC3)nn2)C(=O)Nc2nc(-c3cn4ncnc4c(CCC(F)(F)C(F)(F)F)n3)nc(N)c21` (stereo not shown) [Example 95B, 4-Amino-5-(1-cyclopropyl-1H-1,2,3-triazol-4-yl)-5-methyl-2-(8-(3,3,4,4,4-pentafluorobutyl)-[1,2,4]triazolo[1,5-a]pyrazin-6-yl)-5H-pyrrolo[2,3-d]pyrimidin-6(7H)-one], for which the Emax on sGC α1/β1 heterodimer is 74%. Besides, the “Maximum peak decrease” value in assay [1] (P.O. 0.3 mpk) is “C (Category C=SBP in SHRs >40 mmHg)”.

For `CC1(c2nnc(C3CC3)o2)C(=O)Nc2nc(-c3cn4ncnc4c(CCC(F)(F)C(F)(F)F)n3)nc(N)c21` (stereo not shown) [Example 98B, 4-amino-5-(5-cyclopropyl-1,3,4-oxadiazol-2-yl)-5-methyl-2-(8-(3,3,4,4,4-pentafluorobutyl)-[1,2,4]triazolo[1,5-a]pyrazin-6-yl)-5H-pyrrolo[2,3-d]pyrimidin-6(7H)-one], the Emax on sGC α1/β1 heterodimer is 164%. Besides, the “Maximum peak decrease” value in assay [1] (P.O. 1 mpk) is recorded as “B (Category B=SBP in SHRs 20-40 mmHg)”.

Take `Cc1nc2c(CCC(F)(F)C(F)(F)F)nc(-c3nc(N)c4c(n3)NC(=O)C4(C)c3nnc(C4CC4)o3)cn2n1` (stereo not shown) [Example 103A, 4-amino-5-(5-cyclopropyl-1,3,4-oxadiazol-2-yl)-5-methyl-2-(2-methyl-8-(3,3,4,4,4-pentafluorobutyl)-[1,2,4]triazolo[1,5-a]pyrazin-6-yl)-5H-pyrrolo[2,3-d]pyrimidin-6(7H)-one]: the Emax on sGC α1/β1 heterodimer is 104%. In addition, in assay [1] (P.O. 2 mpk), the “Maximum peak decrease” value is recorded as “A (Category A=SBP in SHRs <20 mmHg)”.

Consider `Nc1nc(-c2cn3ncnc3c(CCCC(F)(F)F)n2)nc2c1C(c1nnc(C3CC3)o1)(C1CC1)C(=O)N2` (stereo not shown) [Example 104A, 4-amino-5-cyclopropyl-5-(5-cyclopropyl-1,3,4-oxadiazol-2-yl)-2-(8-(4,4,4-trifluorobutyl)-[1,2,4]triazolo[1,5-a]pyrazin-6-yl)-5H-pyrrolo[2,3-d]pyrimidin-6(7H)-one], for which the Emax on sGC α1/β1 heterodimer turned out to be 117%. Moreover, the “Maximum peak decrease” value in assay [1] (P.O. 3 mpk) was “C (Category C=SBP in SHRs >40 mmHg)”.
